In data set [1] the target is T1, Vascular endothelial growth factor receptor 2 (Homo sapiens, UniProt P35968). In words: Inhibition of human VEGFR.
Another data set addresses Angiopoietin-1 receptor (Homo sapiens, UniProt Q02763). In words: Inhibition of TIE2 (unknown origin).
A short description of data set [2]: Cytotoxicity against HUVEC cells assessed as reduction in cell viability and measured after 24 hrs by MTT assay. Format: toxicity, cell-based. Particulars: human.
For a further data set, the system named is EA.hy 926. In words: Antiproliferative activity against human EA.hy 926 cells assessed as reduction in cell viability incubated for 48 hrs by MTT assay. Format: functional, cell-based. The following applies: EA.hy 926, 48 h. Background: Formazan colour is commonly taken as a measure of viable cells.
For data set [3], the system named is HUVEC. Kind of data set: Anti-angiogenesis activity in HUVEC cells. It counts as functional, cell-based. Particulars: Homo sapiens.
Data set [4] is described as follows: Inhibition of angiogenesis in HUVEC cells assessed as reduction in capillary tube formation after 6 hrs by phase contrast microscopy. It counts as functional, cell-based. The following applies: Homo sapiens.
For data set [5], the target named is T1, Vascular endothelial growth factor receptor 2. In words: Inhibition of VEGFR2 in HUVEC cells. Format: cell-based.
The subject of the next data set is A549. Kind of data set: Antiproliferative activity against human A549 cells assessed as reduction in cell viability measured after 48 hrs by MTT assay. Format: functional, cell-based. Particulars: A549, 48 h.
The next data set concerns NCI-H1975. Kind of data set: Antiproliferative activity against human NCI-H1975 cells assessed as reduction in cell viability measured after 48 hrs by MTT assay. Format: functional, cell-based. Particulars: NCI-H1975, 48 h.
For data set [6], the system named is HUVEC. Kind of data set: Antiproliferative activity against HUVEC cells assessed as reduction in cell viability measured after 48 hrs by MTT assay. It counts as functional, cell-based. The following applies: Homo sapiens.
The test system of another data set is MDA-MB-231. Kind of data set: Antiproliferative activity against human MDA-MB-231 cells assessed as cell growth inhibition. It counts as functional, cell-based.
In data set [7] the test system is MCF7. Kind of data set: Antiproliferative activity against human MCF7 cells assessed as cell growth inhibition. Format: functional, cell-based.
For data set [8], the system named is MCF7. Kind of data set: Cytotoxicity against human MCF7 cells assessed as reduction in cell viability incubated for 24 hrs by MTT assay. Format: functional, cell-based. Particulars: MCF7, 24 h.
The next data set deals with HepG2. Kind of data set: Cytotoxicity against human HepG2 cells assessed as reduction in cell viability incubated for 24 hrs by MTT assay. It counts as functional, cell-based. Particulars: HepG2, 24 h.

Results on nine compounds are retold here after ChEMBL document CHEMBL5356932, “Research and development of N,N'-diarylureas as anti-tumor agents” (RSC Med Chem, 2023).

pIC50: −log10 of the molar value.

T1 sequence (P35968 whole entry): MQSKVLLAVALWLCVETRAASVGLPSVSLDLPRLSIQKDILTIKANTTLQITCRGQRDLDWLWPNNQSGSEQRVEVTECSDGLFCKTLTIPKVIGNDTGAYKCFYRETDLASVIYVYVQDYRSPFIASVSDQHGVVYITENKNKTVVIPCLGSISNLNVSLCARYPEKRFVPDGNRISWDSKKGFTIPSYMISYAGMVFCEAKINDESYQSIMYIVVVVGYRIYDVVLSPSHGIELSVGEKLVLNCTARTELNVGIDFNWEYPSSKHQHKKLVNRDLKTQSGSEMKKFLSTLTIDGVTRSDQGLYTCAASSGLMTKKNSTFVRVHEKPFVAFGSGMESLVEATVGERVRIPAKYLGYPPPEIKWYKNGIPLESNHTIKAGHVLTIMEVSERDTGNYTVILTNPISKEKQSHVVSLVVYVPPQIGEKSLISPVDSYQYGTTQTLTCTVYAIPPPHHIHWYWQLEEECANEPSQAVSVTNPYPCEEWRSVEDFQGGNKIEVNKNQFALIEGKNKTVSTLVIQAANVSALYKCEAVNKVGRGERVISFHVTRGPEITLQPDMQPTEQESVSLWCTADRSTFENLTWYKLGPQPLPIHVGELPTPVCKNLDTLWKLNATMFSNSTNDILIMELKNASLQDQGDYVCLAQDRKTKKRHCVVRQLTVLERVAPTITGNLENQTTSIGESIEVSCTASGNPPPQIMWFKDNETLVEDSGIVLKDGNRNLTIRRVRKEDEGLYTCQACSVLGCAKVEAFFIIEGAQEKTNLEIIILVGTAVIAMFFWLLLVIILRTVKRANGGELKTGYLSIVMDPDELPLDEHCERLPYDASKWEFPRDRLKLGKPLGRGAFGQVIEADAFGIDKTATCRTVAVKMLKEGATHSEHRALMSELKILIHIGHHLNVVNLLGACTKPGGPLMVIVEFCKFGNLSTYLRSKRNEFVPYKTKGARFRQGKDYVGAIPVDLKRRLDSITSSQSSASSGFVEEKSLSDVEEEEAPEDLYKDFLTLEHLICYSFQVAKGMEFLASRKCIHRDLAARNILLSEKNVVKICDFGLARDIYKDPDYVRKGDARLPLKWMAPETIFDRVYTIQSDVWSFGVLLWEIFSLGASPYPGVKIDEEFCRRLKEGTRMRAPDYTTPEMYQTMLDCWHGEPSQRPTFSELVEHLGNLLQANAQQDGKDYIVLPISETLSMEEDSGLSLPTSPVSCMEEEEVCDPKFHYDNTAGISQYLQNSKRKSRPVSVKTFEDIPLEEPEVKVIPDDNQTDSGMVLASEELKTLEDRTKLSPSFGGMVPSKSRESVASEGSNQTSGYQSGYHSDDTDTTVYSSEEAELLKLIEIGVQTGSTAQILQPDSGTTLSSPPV
Sequence of Angiopoietin-1 receptor (Q02763 whole entry): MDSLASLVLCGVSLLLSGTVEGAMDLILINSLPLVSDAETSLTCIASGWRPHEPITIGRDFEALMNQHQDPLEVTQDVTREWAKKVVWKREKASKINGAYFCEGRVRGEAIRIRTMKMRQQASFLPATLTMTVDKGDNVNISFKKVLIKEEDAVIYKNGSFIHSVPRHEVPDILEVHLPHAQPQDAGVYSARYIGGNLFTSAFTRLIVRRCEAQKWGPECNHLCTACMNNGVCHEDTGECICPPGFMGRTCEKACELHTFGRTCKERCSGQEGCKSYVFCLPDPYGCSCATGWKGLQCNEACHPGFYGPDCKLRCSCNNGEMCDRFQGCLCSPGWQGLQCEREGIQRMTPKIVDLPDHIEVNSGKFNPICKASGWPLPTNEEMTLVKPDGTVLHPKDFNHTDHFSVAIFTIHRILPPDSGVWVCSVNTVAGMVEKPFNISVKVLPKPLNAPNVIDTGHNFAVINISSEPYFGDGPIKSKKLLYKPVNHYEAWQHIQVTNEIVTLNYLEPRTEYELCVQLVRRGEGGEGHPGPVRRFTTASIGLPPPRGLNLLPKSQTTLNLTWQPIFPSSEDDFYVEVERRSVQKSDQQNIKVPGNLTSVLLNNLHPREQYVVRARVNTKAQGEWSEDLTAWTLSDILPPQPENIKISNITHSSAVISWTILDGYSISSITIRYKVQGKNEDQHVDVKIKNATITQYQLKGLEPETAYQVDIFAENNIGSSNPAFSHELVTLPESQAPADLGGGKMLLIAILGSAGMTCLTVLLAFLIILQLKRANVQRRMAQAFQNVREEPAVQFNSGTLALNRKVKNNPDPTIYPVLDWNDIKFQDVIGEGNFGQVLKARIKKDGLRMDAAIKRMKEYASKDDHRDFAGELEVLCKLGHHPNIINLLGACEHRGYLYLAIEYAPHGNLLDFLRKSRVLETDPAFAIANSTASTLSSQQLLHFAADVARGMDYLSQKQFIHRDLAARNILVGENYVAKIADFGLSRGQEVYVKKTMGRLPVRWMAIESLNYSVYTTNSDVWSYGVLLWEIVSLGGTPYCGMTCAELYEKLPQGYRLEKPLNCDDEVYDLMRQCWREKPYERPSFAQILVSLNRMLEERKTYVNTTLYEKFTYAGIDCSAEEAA

As for `COC(=O)Nc1nc2cc(Oc3ccc(NC(=O)Nc4cc(F)ccc4C(F)(F)F)cc3)ccc2[nH]1`, the values for the pIC50 (in data set [1]; against Angiopoietin-1 receptor) were 5.46 and 8.16, respectively.

As for `Cc1nc(Nc2ccc(NC(=O)Nc3ccc(F)c(Cl)c3)cc2)c2nc(-c3ccc(OCCCN4CCN(C)CC4)cc3)oc2n1`, the IC50 at 24 h in data set [2] is 12.4 µM.

`O=C(Nc1ccc(-c2cccc(NC(=O)C3CC3)n2)cc1)Nc1ccc(Cl)c(C(F)(F)F)c1`: the negative logarithm of the IC50 (pIC50) with EA.hy 926 was 4.84.

`Cc1nc(Nc2ccc(NC(=O)Nc3cccc(F)c3)cc2)c2nc(-c3ccccc3)sc2n1`: the pIC50 was 5.28 in the data set on HUVEC [3], 5.28 in [4] and 4.14 in data set [5].

For `O=C(Nc1ccc(OC(F)(F)F)cc1)Nc1ccc2nc(-c3ccccc3Cl)oc2c1`, the pIC50 in the data set on A549 was 5.12; with NCI-H1975, 5.85; in the data set with HUVEC [6] it was 5.07.

Take `O=C(Nc1ccc(-c2cccc(NC(=O)C3CC3)n2)cc1)Nc1cccc(C(F)(F)F)c1`: in the data set on EA.hy 926, the pIC50 is 4.79.

Consider `O=C(Nc1cccc(Sc2ccnc3ccsc23)c1)Nc1cccc(C(F)(F)F)c1`, for which the pIC50 with MDA-MB-231 was 5.30; in the data set on MCF7 [7], 5.92.

Take `CNC(=O)c1cc(Oc2ccc(NC(=O)Nc3ccc(Cl)c(C(F)(F)F)c3)cc2)ccn1` [SORAFENIB]: the pIC50 in the data set with HUVEC [3] is 4.14.

Take `CSc1cccc(NC(=O)Nc2ccc(Oc3ccc4[nH]c(=O)c(=O)[nH]c4c3)cc2C)c1`: the results for the pIC50 in the data set on MCF7 [8] and in the data set on HepG2 were 4.85 and 4.77, respectively.

The term pIC50 denotes the negative decadic logarithm of the IC50, by convention in mol/L. A word on the IC50: it is the concentration at which inhibition is half-maximal.
